{"source": "patent US11285099B2", "about": "“Topical phenytoin for use in the treatment of peripheral neuropathic pain” (Topical Innovations B.V., priority 2016, dated 2022)", "key": {"[1]": {"tested_on": "peripheral neuropathic pain", "test": "Patient cases: topical application on the skin, pain scored on the 11-point numerical rating scale (NRS)", "details": "individual patients of Cases 1-15"}, "neuropathic pain": {"tested_on": "neuropathic pain", "details": "in vivo; cited from earlier work"}, "[2]": {"details": "after oral administration; cited from earlier work"}, "[3]": {"details": "cited from earlier work"}, "[4]": {"details": "partition coefficient between octanol and water; cited from earlier work"}}, "note": "“Also recorded” adds a separate entry of the source. Where two headings read alike, the source gives them in different places."}
{"compound": "CC(C)C[C@H](CN)CC(=O)O", "note": "[pregabalin]", "values": [{"measurement": "analgesic effect of other or earlier treatment in the patient's history", "setting": "[1]", "value": "did not have any effect"}, {"measurement": "tolerability of earlier treatment in the patient's history (words)", "setting": "[1]", "value": "induced too many side effects"}, {"measurement": "tolerability of earlier treatment in the patient's history (words)", "setting": "[1]; listed as Pregabalin", "value": "too much side effects"}, {"measurement": "day at which significant pain reduction or relief versus placebo was shown", "setting": "neuropathic pain", "value": 2, "unit": "days"}, {"measurement": "median onset of action (>30% pain reduction)", "setting": "neuropathic pain", "value": 36, "unit": "days"}]}
{"compound": "O=C(O)Cc1ccccc1Nc1c(Cl)cccc1Cl", "note": "[diclofenac]", "values": [{"measurement": "Cmax. of diclofenac in corresponding tissue", "setting": "[2]", "value": 1160, "unit": "ng/mL"}]}
{"compound": "O=C1NC(=O)C(c2ccccc2)(c2ccccc2)N1.[Na]", "note": "[phenytoin sodium, sodium 5,5-diphenyl-2,4-imidazolidinedione]", "values": [{"measurement": "solubility in water", "setting": "[3]; 37° C., pH 10", "value": "about 2 mg/ml"}, {"measurement": "maximum solubility in water", "setting": "[3]; 37° C., pH 11.1", "value": "about 140 mg/mL"}, {"measurement": "solubility in water", "setting": "[3]; 37° C., pH range between 1 and 6", "value": "35 to 40", "unit": "µg/mL"}, {"measurement": "pH at which dissolvable in water in significant amounts", "setting": "[3]; according to US 2009/0022779", "value": "≥ 12", "unit": "pH"}]}
{"compound": "COc1cccc(C2(O)CCCCC2CN(C)C)c1", "note": "(centres unmarked) [tramadol]", "values": [{"measurement": "analgesic effect of other or earlier treatment in the patient's history", "setting": "[1]", "value": "did not have any analgesic effect"}, {"measurement": "tolerability of earlier treatment in the patient's history (words)", "setting": "[1]", "value": "induced too many side effects"}]}
{"compound": "CNCC[C@H](Oc1cccc2ccccc12)c1cccs1", "note": "[duloxetine]", "values": [{"measurement": "analgesic effect of other or earlier treatment in the patient's history", "setting": "[1]", "value": "did not have any effect"}, {"measurement": "tolerability of earlier treatment in the patient's history (words)", "setting": "[1]", "value": "induced too many side effects"}]}
{"compound": "CN(C)C(=O)C(CCN1CCC(O)(c2ccc(Cl)cc2)CC1)(c1ccccc1)c1ccccc1", "note": "[Loperamide]", "values": [{"measurement": "Log P", "setting": "[4]", "value": 5.5}]}
{"compound": "NCC1(CC(=O)O)CCCCC1", "note": "[gabapentin]", "values": [{"measurement": "analgesic effect of other or earlier treatment in the patient's history", "setting": "[1]", "value": "did not have any effect"}]}
{"compound": "CN(C)CCC=C1c2ccccc2CCc2ccccc21", "note": "[amitriptyline]", "values": [{"measurement": "analgesic effect of other or earlier treatment in the patient's history", "setting": "[1]", "value": "no effect; also recorded: did not have any analgesic effect"}, {"measurement": "tolerability of earlier treatment in the patient's history (words)", "setting": "[1]", "value": "induced too many side effects"}]}
{"compound": "CNC1(c2ccccc2Cl)CCCCC1=O", "note": "(centres unmarked) [Ketamine]", "values": [{"measurement": "Log P", "setting": "[4]", "value": 2.9}]}
{"compound": "O=[N+]([O-])O[C@H]1CO[C@H]2[C@@H]1OC[C@H]2O[N+](=O)[O-]", "note": "[Isosorbide dinitrate]", "values": [{"measurement": "Log P", "setting": "[4]", "value": 1.3}]}
